Laboratory results published in US11767307B2, “Litter for promoting pet's in-litter elimination” (SPECIALITES PET FOOD, priority 2018, dated 2023).

What was measured:
[1] = test system: cats; conditions: 21 commercial cat attractants tested; cited from earlier work
[2] = test system: cat elimination behavior; experiment: Two-litter-box test of cat elimination behavior (deposits weight in litter); assay type: in vivo, cats; conditions: measured on non-soiled litters the first day of use
From the text: (§1) Twenty cats in 5 living rooms (4 cats per room) were involved in the study. The study lasted 4 days and two litter boxes containing two different products, i.e. a control cat litter (Litter 1, non-clumping clay) and an experimental cat litter (Litter 2) sprayed with 0.1% of composition A according to Example 1, were presented to the cats.
Diet was controlled for each test by measuring food intake. The temperature of the rooms was controlled. In each room, an equal proportion of males/females was respected.
as §1, with “study. Two” for “study. The study lasted 4 days and two”, “(Litter 3,” for “(Litter 1,”, “(Litter 4)” for “(Litter 2)”, “composition B” for “composition A”

SMILES | preference by cats for urine elimination versus control [1] | in-litter cat elimination promoting (attractant) effect [2]
CC(C)(CCO)SC[C@H](N)C(=O)O [L-Felinine] | significantly preferred | –
CC1(C)OCC(CO)O1 (centres unmarked) [composition A, 2,2-dimethyl-1,3-dioxolane-4-methanol] | – | in-litter cat elimination promoting (or attractant) effect
